# Laboratory results from patent publication US5084443A, “Promoting expression of acetylcholine receptors with LHRH antagonist” (Biomeasure, Inc., priority 1989, dated 1992).
# Like-named read-outs stand apart in the source and are kept apart here.
# Legend:
# acetylcholine receptors = assay type: in vivo, Sprague Dawley rats; details: for AChR (cpm) / AChR: peptide crushed; for AChR: fmoles per ug protein
# denervated EDL muscle = assay: Denervation atrophy of EDL muscle after peroneal nerve crush (wet muscle weight, protein content); assay type: in vivo, Sprague Dawley rats; details: for Muscle wt / Proteins: peptide crushed; for Muscle wt: wet EDL weight; for Proteins: ug protein content per mg muscle weight
# Procedure: LHRH analogs can be tested for effectiveness in treating injured nerve tissue or preserving muscle mass according to the testing procedures described below for the LHRH analog BIM-21009. BIM-21009 is an antagonist of LHRH activity having the amino acid formula N-Acetyl-D-Naphthylalanine-D-para-Cl-Phe-D-Phe-Ser-Tyr-D-Arg-Phe-Arg-Pro-D-Ala-NH2. BIM-21009 was administered to animals both prior to and after denervation. The animals were prepared for treatment as follows.
# Adult male and female Sprague Dawley rats (Hilltop) weighing approximately 250-275 g were housed in groups of three of the same sex and provided with Purina rat chow and water ad libitum. They were maintained in a 12L:12D photoperiod with lights off at 19:00 hr. Animals were divided into 2 groups having six subdivisions each of 5-7 animals: (1) four days post-lesion: "sham crushed" (i.e., sham nerve crush) males and females, "intact crushed" (i.e., nerve crush control group) males and females, and "LHRH antagonist treated and crushed" (i.e., peptide treatment after nerve crush, also referred to as "peptide crushed") males and females; and (2) twelve days post-lesion: sham crushed males and females, intact crushed males and females, and LHRH treated and crushed males and females.
# All animals were anesthetized with an 8% solution of chloral hydrate (0.4 g/kg). An incision was made on the left leg and the peroneal nerve was exposed at its site of entrance into the peroneal longus muscle. The nerve was crushed with a watchmaker forcep having a uniformly filed tip of 0.2 mm, by applying pressure on the nerve for 10 seconds, rotating the forceps, and applying pressure again on the opposite side for another 10 seconds. After crush, this area of approximately 1 mm becomes translucid. This modified crush method gives well-defined axonal interruption without disrupting the connective tissue sheaths or blood vessels in the region.
# All chemically treated animals received 1 s.c. injection of the LHRH antagonist BIM-21009 at a dosage of 5 mg/kg 24 hrs prior to denervation. Animals in the 12 day groups received an additional injection of 5 mg/kg 6 days after the first injection.
# Dissections were performed between 13:00 and 15:00 hrs. The peroneal nerve was allowed to regenerate for 4 or 12 days, after which the animals were anesthetized with chloral hydrate (0.4 g/kg), the extensor digitorum longus ("EDL") was dissected, frozen on powdered dry ice and stored at -70° C. until the day of the assay.
# The Lowry Method was used for protein determinations. Statistical analysis was performed using 2×2 ANOVA, 1 way ANOVA. Tukey's HSD test was used for post-hoc comparisons.
# [1] = females, 4 days post-lesion, 5 mg/kg s.c.
# [2] = females, 12 days post-lesion, 2 x 5 mg/kg s.c.
# [3] = males, 4 days post-lesion, 5 mg/kg s.c.
# [4] = males, 12 days post-lesion, 2 x 5 mg/kg s.c.
substance,measurement,setting,value
N-Acetyl-D-Naphthylalanine-D-para-Cl-Phe-D-Phe-Ser-Tyr-D-Arg-Phe-Arg-Pro-D-Ala-NH2 [BIM-21009],ratio of cpm/mg muscle vs intact crushed groups,acetylcholine receptors; both males and females (FIG. 5),higher ratio of cpm/mg muscle
same,number of ACh receptors,"acetylcholine receptors; both sexes, at 4 days after nerve crush, more marked in males",dramatic increase
same,time course of effect on ACh receptor number,acetylcholine receptors; day 4 vs day 12 post-lesion,maximal effect at day 4 post-lesion and a minimal or null effect by day 12
same,AChR (cpm),acetylcholine receptors; [1],23.39 cpm
same,AChR,acetylcholine receptors; [1],90.07 fmol
same,AChR (cpm),acetylcholine receptors; [2],15.34 cpm
same,AChR,acetylcholine receptors; [2],65.74 fmol
same,ratio of AChR number/muscle (fM AChR/mg muscle or fM/ug protein) vs crushed group with intact gonads,acetylcholine receptors; male and female rats (FIGS. 3 and 4),significantly higher ratio
same,AChR number/muscle weight ratio vs crushed untreated controls,acetylcholine receptors; males with intact gonads (FIG. 4),higher than in the crushed untreated controls
same,AChR (cpm),acetylcholine receptors; [3],38.37 cpm
same,AChR,acetylcholine receptors; [3],166.96 fmol
same,AChR (cpm),acetylcholine receptors; [4],19.01 cpm
same,AChR,acetylcholine receptors; [4],82.09 fmol
same,atrophy of the denervated EDL muscle vs crushed control group,"denervated EDL muscle; both at 4 days and at 12 days post-lesion, less striking in females than in males",significantly decreased
same,recovery from the crush-induced muscle atrophy: protein content,denervated EDL muscle; females as well as males (FIG. 2),increase in protein content rather than fat accumulation or edema
same,Muscle wt,"denervated EDL muscle; females, 4 days post-lesion, 5 mg/kg s.c. 24 hrs prior to denervation",83.8 mg
same,Proteins,denervated EDL muscle; [1],4.58 µg
same,Muscle wt,"denervated EDL muscle; females, 12 days post-lesion, 5 mg/kg s.c. 24 hrs prior to denervation plus 5 mg/kg 6 days later",84.0 mg
same,Proteins,denervated EDL muscle; [2],4.23 µg
same,protection of EDL muscle from denervation atrophy,denervated EDL muscle; males,protects the EDL muscle in the males from denervation atrophy
same,Muscle wt,"denervated EDL muscle; males, 4 days post-lesion, 5 mg/kg s.c. 24 hrs prior to denervation",81.2 mg
same,Proteins,denervated EDL muscle; [3],4.05 µg
same,Muscle wt,"denervated EDL muscle; males, 12 days post-lesion, 5 mg/kg s.c. 24 hrs prior to denervation plus 5 mg/kg 6 days later",83.1 mg
same,Proteins,denervated EDL muscle; [4],4.34 µg
